Reference: ChEMBL document CHEMBL5465560, “Selectivity Literature for EUbOPEN Chemogenomic Library” (2024)
Each block holds one compound with its values, some of them ahead of it.

How the values were obtained:
[1] = target: Mitogen-activated protein kinase 3 (Homo sapiens, UniProt P27361); assay: Selectivity interaction (Ambit KINOMEscan and KiNATiv profiling in Jurkat cells) EUB0000090b MAPK3; format: cell-based; conditions: at 1 µM
[2] = target: T1, NUAK family SNF1-like kinase 1 (Homo sapiens) (UniProt O60285); assay: Selectivity interaction (KinomeScan (DiscoverX)) EUB0000618a NUAK1; conditions: at 10 µM
T1 sequence (whole entry): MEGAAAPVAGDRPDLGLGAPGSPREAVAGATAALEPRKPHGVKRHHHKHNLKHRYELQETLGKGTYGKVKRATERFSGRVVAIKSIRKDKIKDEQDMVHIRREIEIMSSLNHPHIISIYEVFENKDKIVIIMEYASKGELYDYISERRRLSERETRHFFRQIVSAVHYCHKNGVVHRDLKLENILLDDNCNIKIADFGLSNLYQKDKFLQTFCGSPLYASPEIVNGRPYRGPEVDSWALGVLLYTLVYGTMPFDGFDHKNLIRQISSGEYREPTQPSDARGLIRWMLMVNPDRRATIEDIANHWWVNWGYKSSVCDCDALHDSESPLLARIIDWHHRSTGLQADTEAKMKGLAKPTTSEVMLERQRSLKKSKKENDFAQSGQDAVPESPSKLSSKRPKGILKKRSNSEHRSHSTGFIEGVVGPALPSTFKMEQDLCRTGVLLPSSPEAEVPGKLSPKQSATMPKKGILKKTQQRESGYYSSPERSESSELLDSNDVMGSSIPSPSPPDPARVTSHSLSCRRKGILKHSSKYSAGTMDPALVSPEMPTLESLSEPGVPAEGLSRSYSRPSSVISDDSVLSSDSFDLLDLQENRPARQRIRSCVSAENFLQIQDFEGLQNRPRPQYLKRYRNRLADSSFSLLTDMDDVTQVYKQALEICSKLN

[3] = target: T2, Discoidin domain-containing receptor 2 (Homo sapiens) (UniProt Q16832); assay: Selectivity interaction (KinomeScan (DiscoverX)) EUB0001619a DDR2; conditions: at 1 µM
T2 sequence (whole entry): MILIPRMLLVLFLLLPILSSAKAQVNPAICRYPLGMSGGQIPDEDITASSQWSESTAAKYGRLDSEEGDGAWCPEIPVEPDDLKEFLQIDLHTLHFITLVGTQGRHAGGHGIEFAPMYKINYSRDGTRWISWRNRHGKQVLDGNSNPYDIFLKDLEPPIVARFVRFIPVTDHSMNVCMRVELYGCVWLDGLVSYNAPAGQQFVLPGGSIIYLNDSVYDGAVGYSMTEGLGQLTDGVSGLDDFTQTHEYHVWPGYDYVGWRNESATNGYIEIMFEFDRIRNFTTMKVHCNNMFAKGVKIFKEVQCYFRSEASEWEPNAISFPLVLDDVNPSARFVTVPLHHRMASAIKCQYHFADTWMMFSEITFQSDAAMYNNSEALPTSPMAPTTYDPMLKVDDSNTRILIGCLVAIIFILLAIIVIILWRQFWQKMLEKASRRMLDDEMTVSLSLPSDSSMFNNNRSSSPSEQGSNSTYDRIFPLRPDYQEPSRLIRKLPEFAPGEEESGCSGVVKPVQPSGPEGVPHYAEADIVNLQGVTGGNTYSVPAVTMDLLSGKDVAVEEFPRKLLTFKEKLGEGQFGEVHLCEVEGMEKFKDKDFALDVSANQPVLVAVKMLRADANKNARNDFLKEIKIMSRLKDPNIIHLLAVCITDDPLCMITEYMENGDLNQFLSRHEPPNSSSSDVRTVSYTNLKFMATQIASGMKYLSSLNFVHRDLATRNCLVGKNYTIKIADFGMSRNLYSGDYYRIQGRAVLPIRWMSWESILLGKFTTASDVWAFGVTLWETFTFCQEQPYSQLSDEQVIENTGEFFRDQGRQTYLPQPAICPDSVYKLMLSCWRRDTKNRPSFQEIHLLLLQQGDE

[4] = target: Ribosomal protein S6 kinase alpha-1 (Homo sapiens, UniProt Q15418); conditions: at 10 µM
Chain of Ribosomal protein S6 kinase alpha-1 (Q15418 whole entry): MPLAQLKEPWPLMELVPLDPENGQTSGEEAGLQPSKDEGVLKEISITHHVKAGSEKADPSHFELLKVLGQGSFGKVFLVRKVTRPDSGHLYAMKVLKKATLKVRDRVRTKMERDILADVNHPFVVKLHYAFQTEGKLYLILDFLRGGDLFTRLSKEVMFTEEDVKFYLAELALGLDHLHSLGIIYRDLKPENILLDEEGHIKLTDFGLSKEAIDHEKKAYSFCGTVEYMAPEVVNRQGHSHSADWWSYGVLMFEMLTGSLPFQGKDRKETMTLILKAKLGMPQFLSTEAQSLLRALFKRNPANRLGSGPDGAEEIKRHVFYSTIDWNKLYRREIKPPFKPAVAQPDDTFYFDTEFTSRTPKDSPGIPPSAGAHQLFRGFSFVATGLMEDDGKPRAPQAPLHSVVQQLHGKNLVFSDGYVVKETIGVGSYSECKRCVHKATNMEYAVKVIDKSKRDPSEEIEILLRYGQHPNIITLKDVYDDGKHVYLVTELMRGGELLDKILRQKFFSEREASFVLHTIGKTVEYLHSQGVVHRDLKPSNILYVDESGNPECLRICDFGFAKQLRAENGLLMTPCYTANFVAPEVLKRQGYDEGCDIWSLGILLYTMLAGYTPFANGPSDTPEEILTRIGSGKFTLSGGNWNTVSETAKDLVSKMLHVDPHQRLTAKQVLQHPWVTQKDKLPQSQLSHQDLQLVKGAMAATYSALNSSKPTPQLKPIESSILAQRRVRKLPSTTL

[5] = target: Serine/threonine-protein kinase B-raf (Homo sapiens) (UniProt P15056); assay: Selectivity interaction (KinomeScan (DiscoverX)) EUB0000229b BRAF; conditions: at 10 µM
Chain of Serine/threonine-protein kinase B-raf (Homo sapiens) (P15056 whole entry): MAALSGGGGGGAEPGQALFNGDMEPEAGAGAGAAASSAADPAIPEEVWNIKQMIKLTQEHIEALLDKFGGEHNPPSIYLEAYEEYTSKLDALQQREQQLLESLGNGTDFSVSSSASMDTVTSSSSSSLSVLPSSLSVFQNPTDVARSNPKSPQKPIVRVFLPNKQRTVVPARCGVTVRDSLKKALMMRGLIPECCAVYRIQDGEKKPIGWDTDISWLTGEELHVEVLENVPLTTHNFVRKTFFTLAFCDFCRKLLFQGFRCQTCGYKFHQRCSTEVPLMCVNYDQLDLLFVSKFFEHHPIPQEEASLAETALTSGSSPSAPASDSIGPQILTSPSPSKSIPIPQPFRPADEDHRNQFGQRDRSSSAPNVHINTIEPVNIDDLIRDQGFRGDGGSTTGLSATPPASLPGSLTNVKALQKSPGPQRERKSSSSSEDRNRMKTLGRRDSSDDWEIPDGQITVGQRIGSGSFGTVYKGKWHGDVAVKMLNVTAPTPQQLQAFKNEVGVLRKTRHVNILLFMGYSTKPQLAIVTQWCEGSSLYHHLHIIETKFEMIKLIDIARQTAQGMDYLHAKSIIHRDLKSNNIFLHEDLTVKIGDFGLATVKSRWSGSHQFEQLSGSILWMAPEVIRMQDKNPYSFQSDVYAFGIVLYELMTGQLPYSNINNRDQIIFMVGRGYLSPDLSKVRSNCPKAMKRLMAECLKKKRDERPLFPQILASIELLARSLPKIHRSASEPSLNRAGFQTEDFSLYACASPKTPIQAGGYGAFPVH

[6] = target: Tyrosine-protein kinase Fer (Homo sapiens) (UniProt P16591); assay: Selectivity interaction (ProQinase) EUB0000171b FER
Chain of Tyrosine-protein kinase Fer (Homo sapiens) (P16591 whole entry, looked up): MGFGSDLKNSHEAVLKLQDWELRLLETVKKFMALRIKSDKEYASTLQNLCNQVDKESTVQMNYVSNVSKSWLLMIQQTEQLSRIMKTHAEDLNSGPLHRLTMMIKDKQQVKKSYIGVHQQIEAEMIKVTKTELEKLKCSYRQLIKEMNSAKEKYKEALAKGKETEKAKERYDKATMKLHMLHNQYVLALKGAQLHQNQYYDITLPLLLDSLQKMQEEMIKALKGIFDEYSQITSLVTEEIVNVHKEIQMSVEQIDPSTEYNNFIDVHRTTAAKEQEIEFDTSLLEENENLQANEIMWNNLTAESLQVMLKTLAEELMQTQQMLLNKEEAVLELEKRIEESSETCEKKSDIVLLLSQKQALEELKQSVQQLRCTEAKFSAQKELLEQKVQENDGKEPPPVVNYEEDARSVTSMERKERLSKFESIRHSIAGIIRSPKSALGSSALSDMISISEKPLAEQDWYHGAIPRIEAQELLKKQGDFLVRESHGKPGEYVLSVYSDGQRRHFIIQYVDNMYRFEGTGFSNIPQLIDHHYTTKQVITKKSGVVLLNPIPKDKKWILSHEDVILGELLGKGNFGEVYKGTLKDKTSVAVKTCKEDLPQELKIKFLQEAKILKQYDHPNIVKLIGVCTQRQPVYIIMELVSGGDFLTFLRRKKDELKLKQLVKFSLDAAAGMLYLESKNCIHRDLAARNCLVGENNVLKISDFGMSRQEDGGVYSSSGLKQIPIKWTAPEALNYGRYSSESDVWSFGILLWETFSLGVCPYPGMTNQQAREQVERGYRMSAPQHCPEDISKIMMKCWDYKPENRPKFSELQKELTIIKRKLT

[7] = target: T3, Ephrin type-A receptor 3 (Homo sapiens) (UniProt P29320); assay: Selectivity interaction (KinomeScan (DiscoverX)) EUB0001049a EPHA3; conditions: at 1 µM
T3 sequence (whole entry): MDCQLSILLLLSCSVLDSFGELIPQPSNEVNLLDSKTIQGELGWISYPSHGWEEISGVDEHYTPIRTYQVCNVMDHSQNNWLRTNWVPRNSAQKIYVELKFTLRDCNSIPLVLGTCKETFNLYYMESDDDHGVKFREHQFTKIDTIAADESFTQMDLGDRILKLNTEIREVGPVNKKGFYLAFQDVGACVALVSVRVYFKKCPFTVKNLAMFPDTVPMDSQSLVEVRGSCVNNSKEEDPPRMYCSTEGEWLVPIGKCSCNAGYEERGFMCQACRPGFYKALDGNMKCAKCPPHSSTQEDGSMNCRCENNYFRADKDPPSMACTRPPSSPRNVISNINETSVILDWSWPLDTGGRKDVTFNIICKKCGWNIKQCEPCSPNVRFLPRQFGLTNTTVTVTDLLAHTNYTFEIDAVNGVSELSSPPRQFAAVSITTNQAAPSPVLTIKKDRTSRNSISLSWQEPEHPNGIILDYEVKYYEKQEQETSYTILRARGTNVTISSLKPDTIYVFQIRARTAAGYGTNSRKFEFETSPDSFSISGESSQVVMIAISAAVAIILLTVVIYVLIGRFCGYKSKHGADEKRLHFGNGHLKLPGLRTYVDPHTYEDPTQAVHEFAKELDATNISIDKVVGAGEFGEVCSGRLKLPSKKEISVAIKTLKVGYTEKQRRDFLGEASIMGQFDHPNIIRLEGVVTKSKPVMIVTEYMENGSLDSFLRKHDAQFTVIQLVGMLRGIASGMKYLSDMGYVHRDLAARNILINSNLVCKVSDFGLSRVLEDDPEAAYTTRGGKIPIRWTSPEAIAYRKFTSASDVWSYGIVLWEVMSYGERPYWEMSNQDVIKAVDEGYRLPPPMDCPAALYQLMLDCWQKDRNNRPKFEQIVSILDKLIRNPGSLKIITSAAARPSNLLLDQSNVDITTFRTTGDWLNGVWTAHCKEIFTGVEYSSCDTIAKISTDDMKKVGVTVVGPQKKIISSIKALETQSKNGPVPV

Chain of Mitogen-activated protein kinase 3 (P27361 whole entry): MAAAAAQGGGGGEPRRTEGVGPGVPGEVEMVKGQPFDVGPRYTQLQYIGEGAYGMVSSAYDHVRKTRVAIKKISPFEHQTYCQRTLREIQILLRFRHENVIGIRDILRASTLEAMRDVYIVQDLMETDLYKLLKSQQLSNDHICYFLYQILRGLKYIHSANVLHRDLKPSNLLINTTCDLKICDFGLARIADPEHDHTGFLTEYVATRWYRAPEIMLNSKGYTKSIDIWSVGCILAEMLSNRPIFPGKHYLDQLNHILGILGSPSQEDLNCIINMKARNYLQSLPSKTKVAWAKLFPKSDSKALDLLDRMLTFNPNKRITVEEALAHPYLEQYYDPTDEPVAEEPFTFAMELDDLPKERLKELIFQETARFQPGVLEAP

Structure (SMILES): CN(C)C/C=C/C(=O)Nc1ccc(C(=O)N2CCCC(Nc3ncc(Cl)c(-c4c[nH]c5ccccc45)n3)C2)cc1 (stereo not drawn)
% of control [1]: 84%

Structure (SMILES): O[C@H]1CC[C@H](Nc2ncc3nc(Nc4c(F)cc(F)cc4F)n([C@H]4CCOC4)c3n2)CC1
% of control [2]: 97%

Structure (SMILES): N#Cc1cccc(-c2c[nH]c3ncnc(N4CCOCC4)c23)c1
% of control [3]: 71%

Structure (SMILES): Cc1cc([C@@H](C)Nc2ccccc2C(=O)O)c2nc(N3CCOCC3)cc(=O)n2c1 [AZD-6482]
% of control [4]: 84%

Structure (SMILES): COc1cc(N(C)c2ccnc3ccc(C(F)(F)F)cc23)cc(OC)c1OC
% binding [5]: 71%

% of control ([6]; at 1 µM): 104%
% of control ([6]; at 5 µM): 93%
Structure (SMILES): C=CC(=O)Nc1cccc(C(=O)Nc2ccc(Nc3cc(-c4[nH]c(SC)nc4C)ccn3)cc2)c1

Structure (SMILES): COc1cc(Nc2nc(C)cc(-c3cnn4nc(OC)ccc34)n2)cc(C(F)(F)F)c1
% of control [7]: 80%
